# Assays:
# Assay type in all cases: functional
# [1] = tested on: UACC-257; test: Cytotoxicity against human UACC257 cells after 48 hrs by SRB assay; conditions: UACC-257, 48 h
# [2] = tested on: HL-60(TB); test: Cytotoxicity against human HL-60(TB) cells after 48 hrs by SRB assay; conditions: HL-60, 48 h
# [3] = Cytotoxicity against human EKVX cells assessed as cellular growth at 1 uM after 48 hrs by SRB assay relative to control
# [4] = tested on: HOP-92; test: Cytotoxicity against human HOP92 cells assessed as cellular growth at 100 uM after 48 hrs by SRB assay relative to control
# [5] = tested on: SNB-75; test: Cytotoxicity against human SNB75 cells assessed as cellular growth at 100 uM after 48 hrs by SRB assay relative to control
# [6] = Cytotoxicity against human NCI-ADR-RES cells after 48 hrs by SRB assay
# [7] = tested on: KM12; test: Cytotoxicity against human KM12 cells assessed as cellular growth at 0.1 uM after 48 hrs by SRB assay relative to control
# [8] = tested on: TK-10; test: Cytotoxicity against human TK10 cells assessed as cellular growth at 100 uM after 48 hrs by SRB assay relative to control
# [9] = tested on: SNB-19; test: Cytotoxicity against human SNB19 cells after 48 hrs by SRB assay; conditions: SNB-19, 48 h
# [10] = tested on: HOP-62; test: Cytotoxicity against human HOP62 cells assessed as cellular growth at 100 uM after 48 hrs by SRB assay relative to control
# [11] = tested on: Hs-578T; test: Cytotoxicity against human Hs578T cells after 48 hrs by SRB assay
# [12] = Cytotoxicity against human EKVX cells after 48 hrs by SRB assay
# [13] = tested on: U-251; test: Cytotoxicity against human U251 cells after 48 hrs by SRB assay; conditions: U-251, 48 h
# [14] = tested on: MDA-MB-231; test: Cytotoxicity against human MDA-MB-231 cells assessed as cellular growth at 1 uM after 48 hrs by SRB assay relative to control
# [15] = tested on: NCI-H226; test: Cytotoxicity against human NCI-H226 cells assessed as cellular growth at 100 uM after 48 hrs by SRB assay relative to control
# [16] = tested on: Hs-578T; test: Cytotoxicity against human Hs578T cells assessed as cellular growth at 100 uM after 48 hrs by SRB assay relative to control
# [17] = tested on: Malme-3M; test: Cytotoxicity against human MALME-3M cells assessed as cellular growth at 0.1 uM after 48 hrs by SRB assay relative to control
# [18] = tested on: SF-295; test: Cytotoxicity against human SF295 cells assessed as cellular growth at 100 uM after 48 hrs by SRB assay relative to control
# [19] = tested on: A498; test: Cytotoxicity against human A498 cells assessed as cellular growth at 1 uM after 48 hrs by SRB assay relative to control
# [20] = tested on: DU-145; test: Cytotoxicity against human DU145 cells assessed as cellular growth at 1 uM after 48 hrs by SRB assay relative to control
# [21] = tested on: SF-268; test: Cytotoxicity against human SF268 cells assessed as cellular growth at 0.01 uM after 48 hrs by SRB assay relative to control
# [22] = tested on: Malme-3M; test: Cytotoxicity against human MALME-3M cells assessed as cellular growth at 0.01 uM after 48 hrs by SRB assay relative to control
# [23] = tested on: T47D; test: Cytotoxicity against human T47D cells assessed as cellular growth at 100 uM after 48 hrs by SRB assay relative to control
# [24] = tested on: MDA-MB-468; test: Cytotoxicity against human MDA-MB-468 cells assessed as cellular growth at 1 uM after 48 hrs by SRB assay relative to control
# [25] = tested on: A498; test: Cytotoxicity against human A498 cells assessed as cellular growth at 0.01 uM after 48 hrs by SRB assay relative to control
# [26] = tested on: HL-60(TB); test: Cytotoxicity against human HL-60(TB) cells assessed as cellular growth at 0.1 uM after 48 hrs by SRB assay relative to control
# [27] = tested on: MCF7; test: Cytotoxicity against human MCF7 cells after 48 hrs by SRB assay; conditions: MCF7, 48 h
# [28] = Cytotoxicity against human EKVX cells assessed as cellular growth at 0.01 uM after 48 hrs by SRB assay relative to control
# [29] = tested on: M14; test: Cytotoxicity against human M14 cells assessed as cellular growth at 1 uM after 48 hrs by SRB assay relative to control
# [30] = tested on: SK-OV-3; test: Cytotoxicity against human SKOV3 cells after 48 hrs by SRB assay; conditions: SK-OV-3, 48 h
# [31] = tested on: SK-MEL-5; test: Cytotoxicity against human SK-MEL-5 cells assessed as cellular growth at 1 uM after 48 hrs by SRB assay relative to control
# [32] = tested on: LOX IMVI; test: Cytotoxicity against human LOXIMVI cells assessed as cellular growth at 0.1 uM after 48 hrs by SRB assay relative to control
# [33] = tested on: TK-10; test: Cytotoxicity against human TK10 cells assessed as cellular growth at 0.1 uM after 48 hrs by SRB assay relative to control
# [34] = tested on: SF-539; test: Cytotoxicity against human SF539 cells after 48 hrs by SRB assay; conditions: SF-539, 48 h
# [35] = read-out: LC50 (the source's name)
# [36] = read-out: pLC50 (the source's name) (converted)
smiles,measurement,setting,value
CN1CCN(CCCn2c3c(sc4ncccc43)c(=O)n3nnc(-c4ccccc4)c23)CC1,GI50,[1]; read-out: GI50,1.81 µM
same,CC50,[1]; [35],6.3 µM
same,TGI,[1]; read-out: TGI,3.37 µM
same,GI50,[1]; read-out: pGI50 (converted),1.82 µM
same,CC50,[1]; [36],6.31 µM
same,TGI,[1]; read-out: pTGI (converted),3.39 µM
same,GI50,[2]; read-out: GI50,1.86 µM
same,CC50,[2]; [35],9.05 µM
same,TGI,[2]; read-out: TGI,4.1 µM
same,GI50,[2]; read-out: pGI50 (converted),1.86 µM
same,CC50,[2]; [36],9.12 µM
same,TGI,[2]; read-out: pTGI (converted),4.07 µM
same,Activity,[3],95%
same,Activity,[4],-67%
same,Activity,[5],-94%
same,GI50,[6]; read-out: GI50,2.23 µM
same,CC50,[6]; [35],43.2 µM
same,TGI,[6]; read-out: TGI,5.8 µM
same,GI50,[6]; read-out: pGI50 (converted),2.24 µM
same,CC50,[6]; [36],43.7 µM
same,TGI,[6]; read-out: pTGI (converted),5.75 µM
same,Activity,[7],94%
same,Activity,[8],-47%
same,GI50,[9]; read-out: GI50,2.5 µM
same,CC50,[9]; [35],> 100 µM
same,TGI,[9]; read-out: TGI,5.62 µM
same,GI50,[9]; read-out: pGI50 (converted),2.51 µM
same,CC50,[9]; [36],> 100 µM
same,TGI,[9]; read-out: pTGI (converted),5.62 µM
same,Activity,[10],-81%
same,GI50,[11]; read-out: GI50,14.9 µM
same,CC50,[11]; [35],> 100 µM
same,TGI,[11]; read-out: TGI,41.7 µM
same,GI50,[11]; read-out: pGI50 (converted),14.8 µM
same,CC50,[11]; read-out: pLC50 (converted),> 100 µM
same,TGI,[11]; read-out: pTGI (converted),41.7 µM
same,GI50,[12]; read-out: GI50,2.12 µM
same,CC50,[12]; [35],15.7 µM
same,TGI,[12]; read-out: TGI,4.9 µM
same,GI50,[12]; read-out: pGI50 (converted),2.14 µM
same,CC50,[12]; [36],83.2 µM
same,TGI,[12]; read-out: pTGI (converted),4.9 µM
same,GI50,[13]; read-out: GI50,1.82 µM
same,TGI,[13]; read-out: TGI,3.43 µM
same,GI50,[13]; read-out: pGI50 (converted),1.82 µM
same,TGI,[13]; read-out: pTGI (converted),3.47 µM
same,Activity,[14],87%
same,Activity,[15],-79%
same,Activity,[16],-43%
same,Activity,[17],81%
same,Activity,[18],-84%
same,Activity,[19],76%
same,Activity,[20],95%
same,Activity,[21],96%
same,Activity,[22],83%
same,Activity,[23],-76%
same,Activity,[24],101%
same,Activity,[25],67%
same,Activity,[26],91%
same,GI50,[27]; read-out: GI50,1.53 µM
same,LC50,[27]; read-out: LC50,5.82 µM
same,TGI,[27]; read-out: TGI,2.99 µM
same,GI50,[27]; read-out: pGI50 (converted),1.55 µM
same,LC50,[27]; read-out: pLC50 (converted),5.75 µM
same,TGI,[27]; read-out: pTGI (converted),3.02 µM
same,Activity,[28],98%
same,Activity,[29],97%
same,GI50,[30]; read-out: GI50,18.7 µM
same,CC50,[30]; [35],59.6 µM
same,TGI,[30]; read-out: TGI,33.4 µM
same,GI50,[30]; read-out: pGI50 (converted),18.6 µM
same,CC50,[30]; [36],60.3 µM
same,TGI,[30]; read-out: pTGI (converted),33.1 µM
same,Activity,[31],93%
same,Activity,[32],88%
same,Activity,[33],99%
same,GI50,[34]; read-out: GI50,1.71 µM
same,CC50,[34]; [35],6.54 µM
same,TGI,[34]; read-out: TGI,3.34 µM
same,GI50,[34]; read-out: pGI50 (converted),1.7 µM
same,CC50,[34]; [36],6.61 µM
same,TGI,[34]; read-out: pTGI (converted),3.31 µM
